Reference: patent US7662968B2, “Process for preparing lansoprazole” (KRKA tovarna zdravil, d.d.., priority 2005, dated 2010)
Several values for one entry are separate records, joined by “and”; a condition that tells them apart may be missing. Equal values may be shown once.

Legend:
[1] = BET-surface area determination (nitrogen desorption, BET FlowSorb II 2300); format: physicochemical; conditions: 30 vol. % nitrogen / 70 vol. % helium at 77 K
Description: Unless otherwise noted, the BET-surface areas of the produced lansoprazole are determined by calculation from desorption data of nitrogen obtained on a BET FlowSorb II 2300 (Micromeritics Instrument Corp., USA) using a mixture of 30 vol. % nitrogen and 70 vol. % helium at 77 K.

[2] = Release of lansoprazole from pellets (dissolution, Ph. Eur. Paddle method); format: physicochemical; conditions: paddle 100 rpm, after one hour in artificial gastric juice pH 1.2, FIG. 1; for release of lansoprazole from pellets (comparison in words): phosphate buffer pH 6.8, 37° C.
Description: The release of lansoprazole was spectrophotometrically determined using Hewlett Packard 8452 A Diode array spectrophotometer and automatic sampling system Multicell Transport System. Dissolution profiles were obtained at 37° C. using 900 ml phosphate buffer solution having pH 6.8 and Ph. Eur. Paddle method (100 rpm). Before analysis, the pellet samples were treated with artificial gastric juice (500 ml) having a pH of 1.2 for one hour, washed and quantitatively transferred into the phosphate buffer. […] Preferably more than 80%, more preferably more than 85% and most preferred more than 90% of lansoprazole are released from the compositions according to the invention within 30 minutes.
If a lansoprazole prepared according to example 4 having a BET-surface area of 4.76 m^2/g is used, more than 90% of the drug is released within the first 30 minutes (upper curve).

[3] = lansoprazole form A as obtained after purification and drying

SMILES	BET-surface area [1, 3]	BET-surface area ([1]; lansoprazole form A further milled)	release of lansoprazole from pellets (comparison in words) [2]	drug released ([2]; pellets prepared according to Example 8, within the first 30 minutes, 900 ml phosphate buffer pH 6.8, 37° C.)	release of lansoprazole from pellets (comparison in words) ([2]; listed as lansoprazole having a BET-surface area of 4.67 m^2/g)
Cc1c(OCC(F)(F)F)ccnc1C[S+]([O-])c1nc2ccccc2[nH]1 (centres unmarked) [Example 3, 2-[[[3-methyl-4-(2,2,2-trifluoroethoxy)-2-pyridinyl]methyl]sulfinyl]-1H-benzimidazole]	0.25 m^2/g	0.87 m^2/g	clearly smaller release	–	–
Cc1c(OCC(F)(F)F)ccnc1C[S+]([O-])c1nc2ccccc2[nH]1 (centres unmarked) [Example 4, 2-[[[3-methyl-4-(2,2,2-trifluoroethoxy)-2-pyridinyl]methyl]sulfinyl]-1H-benzimidazole]	4.67 m^2/g and 4.76 m^2/g	–	–	more than 90%	clearly faster
Cc1c(OCC(F)(F)F)ccnc1C[S+]([O-])c1nc2ccccc2[nH]1 (centres unmarked) [Example 5, 2-[[[3-methyl-4-(2,2,2-trifluoroethoxy)-2-pyridinyl]methyl]sulfinyl]-1H-benzimidazole]	1.0 m^2/g and 1.00 m^2/g	–	clearly smaller release	–	–
